65 compounds from a melting point compilation (Tetko et al.; mined from patent text by program, amines drawn as free bases though some values may be those of a salt) can be followed below.

SMILES strings stand for the structures.

What is called melting point is the temperature, or range, at which the solid turns liquid. In the case of `c1cn(CCCOc2ccc(-c3noc(C4CC4)n3)cc2)cn1`, the melting point was in the range of 98 to 100 °C. As for `CC(C)NS(=O)(=O)c1sccc1-c1cccc2cc(-c3ncc(CCl)s3)[nH]c12`, the figure is 184 to 185 °C; as for `O=C(O)CCCc1cc2nc(Cl)ccc2n1S(=O)(=O)c1ccc(-c2ccncc2)cc1`, 174 °C. With `CCCCCCCCCCOc1cccc(Nc2nnc(Cc3ccncc3)c3ccccc23)c1` the figure was 116 to 119 °C; with `CCOc1ccc(C(=O)OC)cc1C(=N)N`, 133 to 135 °C. In turn, `Cc1cc(C)c(NC(=S)C2(C)CCc3c(C)c(O)c(C)c(C)c3O2)cc1C` (stereo not given) had a melting point of 124 to 125 °C. With `CC(C)(C)OC(=O)N(C(=O)OC(C)(C)C)C(Cc1c[nH]cn1)C(=O)OCc1ccccc1` (stereo not given) the figure was 97 to 99.5 °C; with `COCCOc1cc(N(C)S(=O)(=O)c2ccccn2)c2[nH]c(C3=NCC(CC(N)=O)S3)cc2c1` (stereo not given), 100 to 102 °C; with `OCCC(c1ccccc1)c1cc(Br)ccc1OCc1ccccc1` (stereo not given), 70 °C. As for `CCc1cc(O)cc(=O)o1`, the figure is 106 to 108 °C; as for `COc1cccc2nc(-c3ccc4c(c3)NC(=O)C4(C)C)[nH]c12`, 222 to 225 °C. As for `Cc1c(C)c2c(c(C)c1N)C(c1ccccc1)CO2` (stereo not given), the figure is 94 to 95 °C; as for `CC(=O)N(C(=NC1CCCCC1)ON=C(C)C)C1CCCCC1`, 74 to 78 °C. On to `CCc1cc(Cl)c(NC(C)=O)c(Cl)n1`, for which the melting point is 142 °C.

For the compound `O=C(O)c1cc(S(=O)(=O)N2CCC(Br)C(Br)C2)ccc1Cl` (stereo not given), the melting point is 176 to 178 °C. With `Cc1nc2c3c(ccn2c1C)C(O)CC(c1ccccc1)N3` (stereo not given) the figure was 210 to 212 °C; with `CCOC(=O)CC=Cc1ccc2ccccc2c1O`, 83 to 84 °C; with `CCOC(=O)n1c(C(=O)c2ccccc2)c(N)c2c(Cl)cccc21`, 118 to 119 °C.

`NCCOc1cccc2c1c1cccc(F)c1n2Cc1ccccc1` gave a melting point of 122 to 123 °C.

For the compound `CCOc1c(CS(=O)(=O)C2=NOC(C)(CCl)C2)c(C(F)(F)F)nn1CC` (stereo not given), the melting point was in the range of 67 to 69 °C. As for `CCCCCOc1ccc(CC(C)C(=O)Oc2ccc(-c3ccc(CCC)cc3)cc2)cc1` (stereo not given), the figure is 84 to 84.5 °C; as for `CC(C)(C)OC(=O)N1CCN(C(=O)C(F)(F)F)CC1`, 66 to 68 °C; as for `CCC1Nc2c(C)cccc2-n2cccc21` (stereo not given), 65 to 68 °C. With `O=C(O)Cc1c(C(=O)c2ccc(Cl)cc2Cl)[nH]c2cc(Cl)ccc12` the figure was 190 to 192 °C; with `Cn1cncc1C(N)(c1ccc(CN)cc1)c1ccc2c(c1)c(-c1cccc(Cl)c1)cc(=O)n2C` (stereo not given), 150 °C. With `O=C(O)CCCCCCCCCCc1ccc(F)cc1F` the figure was 56 °C. `N#Cc1ccc2[nH]cc(C3=CCN(CC4COc5cccnc5O4)CC3)c2c1` (stereo not given) had a melting point of 165 °C. Compound `COC(=O)c1sc(C)c(N)c1C` displayed a melting point of 88 to 89 °C.

With `CCOC(=O)N1CCOC(c2ccccc2)(c2ccccc2)CC1`, the melting point fell in the range of 122 to 123 °C. With `CC1(N)CN(c2cc3c(cc2F)c(=O)c(C(=O)O)cn3-c2ccc(F)cc2F)C1` the figure was 210 to 216 °C.

Compound `CC(O)c1ccc2occ(-c3nnn[nH]3)c(=O)c2c1` (stereo not given) showed a melting point of 234 to 236 °C. In turn, `CCNC(=C[N+](=O)[O-])NCCSCc1nccs1` registered a melting point of 115 to 116 °C. As for `CC(C)NC(=O)NC(=O)c1ccnc([N+](=O)[O-])c1`, the figure is 132 to 133 °C; as for `CCOC(=O)C1=C(C)NC(C#N)=C(C(=O)OCC)C1c1ccccc1Cl` (stereo not given), 136 to 137 °C; as for `Fc1nc(NCc2ccncc2)c2nc[nH]c2n1`, 200 to 202 °C. Take `O=Cc1cccc(-c2cc(-c3ccc(C(F)(F)F)cc3)no2)c1`: the melting point lay within 151 to 152 °C. As for `COc1cc(C=CC(=O)c2ccc(-c3cccs3)s2)ccc1O`, the figure is 166 to 168 °C. Turning to `CCOP(=O)(OCC)C(Nc1ncc(-c2ccccc2)s1)P(=O)(OCC)OCC`, the melting point lay in the range of 151 to 153 °C. As for `COc1ccc(N2CCN(CCN3CC(C)(C)C3)C2=O)cc1Cl`, the figure is 93 to 95 °C; as for `O=[N+]([O-])c1ccc(-c2oncc2CCCO)cc1`, 132 to 133 °C; as for `[N-]=[N+]=NCc1ccc2c(NC(=O)c3ccccc3)nccc2c1`, 125 to 129 °C.

`COC(=O)C1Cc2ccc([N+](=O)[O-])cc2CN1` (stereo not given) returned a melting point of 133 to 135 °C. With `CCOC(=O)C(C)(C)OC1(CCCNC(=O)c2cc(Cl)ccc2OC)C=CC(c2ccccc2)=CC1` (stereo not given) the figure was less than 20 °C; with `CN(C)c1ccc(C(=O)N2CCN(CCc3ccc(Cl)cc3)CC2)cc1`, 133 to 134 °C. With `CC1NC(=O)c2ccccc2O1` (stereo not given), the melting point was in the range of 124 to 126 °C.

`C=CCNc1nc(NCC=C)c2scc(-c3ccccc3)c2n1` had a melting point of 98 to 100 °C.

`C#CCOc1cccc(-c2nc3cnncc3[nH]2)c1OC`: the melting point came out at 224 °C.

`O=C(O)CCCc1cc2nc(Cl)ccc2n1S(=O)(=O)c1cccc2cccnc12` had a melting point of 186 to 189 °C. With `CCOC(=O)/C=C/c1ccc2c(c1)nc(N)c1nc(CC)n(CC3CCOCC3)c12` the figure was 209 to 210 °C; with `CC(=O)OC(C)OC(=O)[C@H](Cc1ccc(-c2c(C)n(C)c(=O)n(C)c2=O)cc1)NC(=O)c1c(Cl)cccc1Cl` (stereo not given in full), 168 to 170 °C. Regarding `O=C1c2ccccc2OC1Br` (stereo not given), the melting point worked out at 60 °C. The compound `Cc1ccc(S(=O)(=O)OCC2CCc3sc(C)nc3C2)cc1` (stereo not given) registered a melting point of 105 to 106 °C. As for `COC(=O)CN1C(=O)[C@H](C(C)C)Oc2c(C(C)C)cccc21`, the figure is 67 to 68 °C. As for `CNc1cc(C(=O)CS(C)(=O)=O)cc(NC)c1Cl`, the figure is 165 to 167 °C; as for `Cc1[nH]cnc1CSCCN(C)C(N)=S`, 149 to 151 °C. The compound `NC(=O)C(N)N=Nc1ccccc1C(=O)c1ccccn1` (stereo not given) gave a melting point of 210 to 212 °C. As for `CC(C)(C)[Si](C)(C)N1C(=O)[C@@H](N2C(=O)c3ccccc3C2=O)[C@H]1/C=C/c1ccccc1` (relative stereo), the figure is 167 to 168 °C; as for `CCOC(=O)COc1ccccc1C(=O)Nc1ccccc1Sc1ccccc1-c1nnn[nH]1`, 145 to 146 °C; as for `COc1ccc(-c2c(CO)c(CO)c3sc4ccccc4n23)cc1`, 156 to 157 °C. With `NC(=O)C1=CCCc2cc(Sc3cccc(F)c3)cc(F)c21` the figure was 213 to 214 °C; with `CC(C)c1cccc(CC(=O)O)c1OCCCc1cn(-c2ccc(C(F)(F)F)cn2)nc1C(C)C`, 108 to 109 °C. `CCOC(=O)c1cnn(-c2ccccn2)c1S(N)(=O)=O` returned a melting point of 73 to 76 °C.

In turn, `COc1cc(CNc2nc(NCCc3ccccn3)nc3ncccc23)cc(OC)c1` returned a melting point of 157 to 158 °C. As to `C=CCc1ccccc1OC[C@@H](O)CNCCc1ccc(NC2CCN(S(=O)(=O)c3ccc(N(CCCCCC)C(N)=O)cc3)CC2)cc1`, the melting point fell in the range of 68 to 70 °C.

Consider `CN1CCCN(C2=Nc3cc(Cl)ccc3Nc3ccccc32)CC1`, for which the melting point lay in the range of 143 to 145 °C.
